# Where “and” joins values, the source holds several entries; their conditions need not be identical. Equal entries are not always repeated. Entries after “also recorded” stand apart in the source; their conditions may differ.
# Experiments:
# ADK-L cells = assay: DNA methylation (5 mC ELISA) in ADK-L cells; parameters: reduction of DNA methylation in ADK-L cells: dose or concentration left out as unconfirmed; settings: 24 hours
# Description: The in vitro IC50 for each conventional ADK inhibitor was selected as the treatment dose. […] Purified genomic DNA (100 ng) was run on a 5-methylcytosine (5 mC) ELISA. Data shown in FIG. 11 are represented as the mean±SEM (n=8-9) and analyzed by one-way ANOVA followed by Tukey's multiple comparisons test (C) or Krus-kal-Wallis test followed by uncorrected Dunn's test with all comparisons relative to ADK-L vehicle (D).
# ADK-S cells = assay: DNA methylation in ADK-S cells
# human P2Y11 = target: T1, human P2Y11 (Homo sapiens, UniProt Q96G91); assay: calcium transients, P2Y11 in 1321N1 astrocytoma cells; type: cell-based; settings: 10 μM
# T1 construct: expressed in transfected cells; host or cells: 1321N1 astrocytoma cells
# T1 sequence (Q96G91 1-374): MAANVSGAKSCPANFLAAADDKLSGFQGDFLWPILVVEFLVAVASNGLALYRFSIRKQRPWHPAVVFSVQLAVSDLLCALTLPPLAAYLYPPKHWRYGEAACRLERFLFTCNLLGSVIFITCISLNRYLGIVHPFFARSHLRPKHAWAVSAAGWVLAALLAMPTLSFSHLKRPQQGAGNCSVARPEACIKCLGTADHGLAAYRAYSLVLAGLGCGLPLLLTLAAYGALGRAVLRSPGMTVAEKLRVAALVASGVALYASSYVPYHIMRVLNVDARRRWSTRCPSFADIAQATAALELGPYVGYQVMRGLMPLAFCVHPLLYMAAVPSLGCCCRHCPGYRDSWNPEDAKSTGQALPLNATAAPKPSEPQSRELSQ
# Description: (§1) It is possible that transient treatment with AdK inhibitors would have long-lasting therapeutic benefits for treatment of CNS disorders, not only by raising the basal level of AR activation but also through epigenetic reprogramming. […] SAH in turn inhibits DNA methyltransferases through product inhibition. Because the epigenetic effects related to changes in the DNA methylation status would persist, it might be possible to reduce the duration of drug administration, thus avoiding toxicities associated with prolonged, chronic dosing. A transient dosing regimen might also avoid possible side effects, such as liver toxicity. Compound 38a was submitted to the Psychoactive Drug Screening Program (PDSP) for screening at 45 receptors, channels and transporters. […] Nevertheless, the offtarget interactions of the present set of compounds would have to be examined more extensively.
# [1] = tested on: 45 receptors, channels and transporters; assay: PDSP screening at 45 receptors, channels and transporters (other off-target sites); type: binding; settings: 10 μM
# Description: as §1
# DNMT activity = DNMT activity in brain nuclear protein extracts of treated mice; type: in vivo, Swiss Webster mice; settings: 3.1 mg/kg i.p., 3 doses every 12 hours, 1 hour after 3rd dose, vs vehicle
# Description: (§2) Epigenetic activity in the brain. […] Tissue was harvested 1 hour after the 3rd dose.
# human P2Y2 = target: T2, human P2Y2 (Homo sapiens, UniProt P41231); assay: calcium transients, P2Y2 in 1321N1 astrocytoma cells; type: cell-based; settings: 10 μM
# T2 construct: expressed in transfected cells; host or cells: 1321N1 astrocytoma cells
# T2 sequence (P41231 whole entry): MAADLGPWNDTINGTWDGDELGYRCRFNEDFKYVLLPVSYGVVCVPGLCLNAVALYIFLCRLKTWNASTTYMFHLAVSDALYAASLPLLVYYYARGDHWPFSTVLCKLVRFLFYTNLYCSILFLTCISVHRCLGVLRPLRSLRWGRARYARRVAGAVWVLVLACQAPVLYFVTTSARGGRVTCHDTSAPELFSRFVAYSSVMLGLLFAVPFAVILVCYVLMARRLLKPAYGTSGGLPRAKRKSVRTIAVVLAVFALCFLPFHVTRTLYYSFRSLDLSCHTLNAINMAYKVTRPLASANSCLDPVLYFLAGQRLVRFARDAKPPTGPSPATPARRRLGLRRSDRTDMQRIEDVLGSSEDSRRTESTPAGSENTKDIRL
# Description: as §1
# [2] = tested on: Hippocampal DNA methylation; assay: hippocampal / brain DNA methylation in treated mice; type: in vivo, Swiss Webster mice; settings: 3.1 mg/kg i.p., 3 doses every 12 hours, 1 hour after 3rd dose, vs controls
# Description: as §2
# [3] = side effects: mouse activity in an open field; type: in vivo, mice; settings: epigenetically active dose, i.p.
# Description: Side effects were indexed by mouse activity in an open field for 20 minutes following a single i.p. injection of vehicle, 5-ITU or compound 38a. […] Data are presented as the mean±SEM and analyzed by one-way ANOVA then uncorrected Fisher's LSD test with all comparisons relative to vehicle or Kruskal-Wallis then Dunn's multiple comparisons.
# [4] = target: human 5HT7 (serotonin) receptor (Homo sapiens, UniProt P34969); assay: PDSP radioligand binding, 5HT7; settings: read-out: Ki, inhibition of radioligand binding
# Chain of human 5HT7 (serotonin) receptor (P34969 whole entry): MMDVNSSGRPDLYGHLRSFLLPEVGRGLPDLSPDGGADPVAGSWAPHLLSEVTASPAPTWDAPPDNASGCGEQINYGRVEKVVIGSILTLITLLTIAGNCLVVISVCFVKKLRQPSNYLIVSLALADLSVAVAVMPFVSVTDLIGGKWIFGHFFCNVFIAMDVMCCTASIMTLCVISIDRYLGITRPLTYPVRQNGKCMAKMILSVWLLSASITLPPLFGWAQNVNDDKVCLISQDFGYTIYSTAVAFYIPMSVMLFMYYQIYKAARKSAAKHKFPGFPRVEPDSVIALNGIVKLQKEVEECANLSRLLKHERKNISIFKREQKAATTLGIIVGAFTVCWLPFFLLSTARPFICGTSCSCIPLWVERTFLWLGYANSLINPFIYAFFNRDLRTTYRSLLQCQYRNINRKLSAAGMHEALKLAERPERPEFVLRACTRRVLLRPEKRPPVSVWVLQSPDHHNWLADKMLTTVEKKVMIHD
# Description: as §1
# [5] = polarity judged by tendency to dissolve in organic solvents; type: physicochemical; settings: based on tendency to dissolve in organic solvents
# Description: The bioavailability and the in vivo activity of these inhibitors remain to be determined. Other nucleoside derivatives were protective in seizure models when administered peripherally. […] Among the new (S)-methanocarba AdK inhibitors, 5′-deoxy analogue 38a and especially the fluoro analogues 38b and 38c appear to be the least polar, based on their tendency to dissolve in organic solvents.
# human P2Y1 = target: T3, human P2Y1 (Homo sapiens, UniProt P47900); assay: calcium transients, P2Y1 in 1321N1 astrocytoma cells; type: cell-based; settings: 10 μM
# T3 construct: expressed in transfected cells; host or cells: 1321N1 astrocytoma cells
# T3 sequence (P47900 whole entry): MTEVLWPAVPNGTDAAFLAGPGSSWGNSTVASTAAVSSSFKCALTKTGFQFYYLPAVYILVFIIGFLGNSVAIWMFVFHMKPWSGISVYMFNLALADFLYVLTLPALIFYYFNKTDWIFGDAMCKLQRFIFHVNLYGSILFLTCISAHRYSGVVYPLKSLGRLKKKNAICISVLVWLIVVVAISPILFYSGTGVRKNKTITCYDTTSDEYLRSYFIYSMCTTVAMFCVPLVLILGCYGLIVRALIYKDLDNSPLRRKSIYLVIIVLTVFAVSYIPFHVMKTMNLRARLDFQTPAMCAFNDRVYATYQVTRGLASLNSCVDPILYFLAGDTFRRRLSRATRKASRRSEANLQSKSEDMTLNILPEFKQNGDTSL
# Description: as §1
# human P2Y4 = target: T4, human P2Y4 (Homo sapiens, UniProt P51582); assay: calcium transients, P2Y4 in 1321N1 astrocytoma cells; type: cell-based; settings: 10 μM
# T4 construct: expressed in transfected cells; host or cells: 1321N1 astrocytoma cells
# T4 sequence (P51582 whole entry): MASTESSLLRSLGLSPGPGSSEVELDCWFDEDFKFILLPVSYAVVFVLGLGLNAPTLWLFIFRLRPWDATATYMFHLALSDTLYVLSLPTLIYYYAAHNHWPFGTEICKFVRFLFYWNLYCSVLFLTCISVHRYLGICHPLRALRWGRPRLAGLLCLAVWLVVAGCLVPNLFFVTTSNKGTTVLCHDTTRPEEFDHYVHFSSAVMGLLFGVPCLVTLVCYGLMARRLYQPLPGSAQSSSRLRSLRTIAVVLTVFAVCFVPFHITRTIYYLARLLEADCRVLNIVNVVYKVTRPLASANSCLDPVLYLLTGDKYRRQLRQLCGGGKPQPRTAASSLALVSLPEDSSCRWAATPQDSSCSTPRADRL
# Description: as §1
# hAdK [6] = target: T5, hAdK (Homo sapiens, UniProt P55263); assay: commercial nonisotopic spectrophotometric hAdK kinetic activity assay (340 nm, inosine as substrate); type: biochemical
# T5 construct: purchased
# T5 sequence (P55263 whole entry): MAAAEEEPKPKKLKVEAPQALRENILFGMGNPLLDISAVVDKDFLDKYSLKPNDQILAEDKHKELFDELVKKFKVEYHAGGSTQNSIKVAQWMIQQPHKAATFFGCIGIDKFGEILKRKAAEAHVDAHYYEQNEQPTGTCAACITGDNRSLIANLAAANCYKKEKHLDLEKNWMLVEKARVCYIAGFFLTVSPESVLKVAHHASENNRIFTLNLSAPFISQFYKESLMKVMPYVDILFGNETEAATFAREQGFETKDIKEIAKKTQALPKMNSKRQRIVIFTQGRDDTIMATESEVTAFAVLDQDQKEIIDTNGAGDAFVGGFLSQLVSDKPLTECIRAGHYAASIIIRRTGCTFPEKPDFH
# Description: The nucleoside derivatives were tested for inhibitory activity at hAdK using a commercial, nonisotopic assay for the measurement of hAdK kinetic activity based on continuous monitoring of enzymatic activity at 340 nm (appearance of reduced nicotinamide-adenine dinucleotide from a coupled enzymatic reaction). The hAdK-catalyzed phosphorylation of inosine to inosine 5′-monophosphate is coupled to the inosine 5′-monophosphate dehydrogenase-dependent oxidation of the product. […] Percent inhibition of hAdK activity was calculated by determining the slope of the hAdK reaction during the linear phase of the enzymatic reaction (first 40 min) (see Table 1, below). […] Each inhibitor was analyzed at the following concentrations (μM): of 50, 20, 1, 0.50, 0.10, 0.020 and 0.010.
# [7] = target: T6, protease-activated receptor (PAR)1 (Homo sapiens, UniProt P25116); assay: PAR1 agonist/antagonist test in mouse KOLF cells; type: cell-based; settings: 10 μM
# T6 construct: expressed in transfected cells; host or cells: mouse KOLF cells
# T6 sequence (P25116 22-425): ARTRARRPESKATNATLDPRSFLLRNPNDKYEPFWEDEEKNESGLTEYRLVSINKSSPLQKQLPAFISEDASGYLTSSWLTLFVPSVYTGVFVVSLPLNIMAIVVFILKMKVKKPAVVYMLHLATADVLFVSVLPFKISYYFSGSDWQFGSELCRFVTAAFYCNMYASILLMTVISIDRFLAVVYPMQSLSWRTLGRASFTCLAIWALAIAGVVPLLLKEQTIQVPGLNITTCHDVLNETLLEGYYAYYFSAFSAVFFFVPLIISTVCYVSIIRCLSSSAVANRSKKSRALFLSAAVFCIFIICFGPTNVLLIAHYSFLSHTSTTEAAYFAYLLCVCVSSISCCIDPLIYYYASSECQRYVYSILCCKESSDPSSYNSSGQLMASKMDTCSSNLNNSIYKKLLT
# Description: as §1
# ADK-null cells = assay: DNA methylation in ADK-null cells (off-target); type: cell-based; settings: vs vehicle
# Description: To test for nonspecific activities of ADK inhibitors on DNA methylation, we tested our set of inhibitors on ADK-null cells, which are hypomethylated and can be used to identify treatments that increase DNA methylation (whereas ADK-L cells display a hypermethylated ceiling effect).
# hAdK [8] = target: T5, hAdK; settings: read-out: Km as substrate of hAdK; cited from earlier work
smiles,measurement,setting,value
C[C@@H]1[C@@H](O)[C@@H](O)[C@@]2(n3cc(-c4ccccc4)c4c(Nc5ccccc5)ncnc43)C[C@@H]12 [Compound 38a],"effect on DNA methylation in ADK-L cells, in words","ADK-L cells; 55 and 38a at 26 nM, known inhibitors at their IC50",reduces DNA methylation specifically in ADK-L cells
same,reduction of DNA methylation in ADK-L cells,"ADK-L cells; […] nM (equimolar), vs ADK-L vehicle",> 50%
same,effect on DNA methylation in ADK-S cells,ADK-S cells,without any off-target effects
same,agonist or antagonist activity at P2Y11,human P2Y11,inactive
same,inhibition of binding at the other off-target sites,[1],< 50%
same,DNMT activity in brain nuclear protein extracts,DNMT activity,significantly reduced
same,DNMT activity in brain nuclear protein extracts,DNMT activity; listed as 38A,reduced
same,agonist or antagonist activity at P2Y2,human P2Y2,inactive
same,hippocampal (brain) DNA methylation levels,[2],reduced
same,hippocampal (brain) DNA methylation levels,[2]; listed as 38A,reduced; also recorded: reduces DNA methylation in the hippocampus
same,sedation / sedative side effects,[3],not associated with any overt signs of sedation
same,Ki,[4],710 nM
same,polarity,[5],least polar
same,agonist or antagonist activity at P2Y1,human P2Y1,inactive
same,agonist or antagonist activity at P2Y4,human P2Y4,inactive
same,"hAdK inhibition, in words",hAdK [6],commensurate with 2 at most concentrations
same,concentration at which inhibition begins to vary significantly from 2,hAdK [6]; Bonferroni post hoc vs 2,never significantly varied from 2
same,potency relative to reference compound 2,hAdK [6]; hAdK inhibition,approximately two-fold less potent
same,IC50,"hAdK [6]; hAdK, inosine as substrate, read-out: IC50 for hAdK",< 100 nM and 88 nM
same,agonist or antagonist activity at PAR1,[7],inactive
same,effect on DNA methylation in ADK-null cells (non-specific),ADK-null cells,greater specificity
same,effect on DNA methylation in ADK-null cells (non-specific),ADK-null cells; listed as 38A,no effect on DNA methylation; also recorded: without any off-target effects
Nc1ncnc2c1ncn2[C@@H]1O[C@H](CO)[C@@H](O)[C@H]1O [adenosine],Km,hAdK [8],0.7 µM
